Results: patent US20050170019A1, “Methods, compositions and devices for inducing stasis in cells” (Fred Hutchinson Cancer Research Center, priority 2003, published 2005)

Assays:
mice [1] = assay: Respirometry (oxygen consumption, carbon dioxide production) of mice exposed to H2S; type: in vivo, mouse
Procedure: Measurements were over a period of 15 minutes, with the mice in a 0.5 L sealed environmental chamber with flow rates of 500 cc/min. Consumption of oxygen is obtained by subtracting the oxygen concentration when the mouse is present, from the control when the mouse is absent. Likewise, production of carbon dioxide is obtained by subtracting the carbon dioxide concentration when the mouse is present from the control when the mouse is absent. RQ stands for respiratory quotient, and is equal to the ratio of carbon dioxide produced to oxygen […]. […] The change in the respiratory quotient reflects the disparity oxygen consumption and carbon dioxide production by the mice in the presence or absence of the H2S.

mice [2] = conditions: 80 ppm, cited from earlier work
humans = conditions: cited from earlier work
mice [3] = assay: Telemetry of core body temperature, heart rate and movement of mice in regulated H2S atmosphere; type: in vivo, mouse
Text: Implantation of telemetry devices.
Exposure of Mice to Regulated Atmosphere.
Regulation of Ambient Temperature. […] Mice were exposed to regulated atmosphere as described above.

rats = conditions: cited from earlier work
mice [4] = conditions: mice tested before and after exposure
mice [5] = assay: Visual observation of breathing of mice administered H2S; type: in vivo, mouse
Text: The different parameters of stasis (reduction in oxygen consumption, decrease in carbon dioxide production or decrease in motility) can be assessed by a variety of assays and techniques. […] Indeed, this encompasses all three parameters in that it is indicative of decreased oxygen consumption, carbon dioxide production and motility. A normal mouse in room air at standard conditions will take approximately 200 breaths per minute. […] Thus, this represents at least about a 1-20-fold decrease in cellular respiration (i.e, oxygen consumption and carbon dioxide production).
During the experiment, the mouse was visually observed and its movements were recorded by web camera, and telemetry measurements were recorded as described above. […] At the end of an approximately six-hour period, heat was applied to the cabinet by setting the cabinet temperature to 25° C. […] After the cabinet was warmed, weak respiration was observed when the core body temperature of the mouse achieved 14° C. […] Normal movement and respiration were fully apparent when the core body temperature returned to 25° C.

[6] = mice, H2S 80 ppm versus without H2S
[7] = second mouse, 80 ppm, 3 hrs, incubator 18° C.

SMILES: S [hydrogen sulfide, Hydrogen sulfide]
- RQ (respiratory quotient) (mice [1]; H2S (80 ppm) present): 0.58
- production of carbon dioxide (mice [1]; H2S (80 ppm) present): 750 ppm
- Consumption of oxygen (mice [1]; H2S (80 ppm) present, control without mouse minus mouse present): 1300 ppm
- drop in carbon dioxide production (mice [1]; [6]): 3-4 fold
- drop in oxygen consumption (mice [1]; [6]): 2-3 fold
- decrease in CO2 production (mice [1]; mouse, 80 ppm (FIG. 4A)): approximately 3 fold
- time to reduced carbon dioxide production (new baseline) (mice [1]; mouse, 80 ppm (FIG. 4A)): approximately 5 minutes
- tolerability (mice [2]; exposures lasting up to ten weeks (CIIT 1983; Hays, 1972)): innocuous
- adverse effect, gross and histopathological examination (mice [2]; mice, 6 hrs per day, 5 days per week, 90 days): no observed adverse effect
- effect of exposure to extreme levels (humans; 500 ppm): sudden collapse and unconsciousness
- effect of a single breath (knock down) (humans; atmosphere with 0.1% hydrogen sulfide): immediately collapse
- OSHA limit for humans (humans; in vivo): 10 ppm
- core temperature reached (mice [3]; first mouse, 80 ppm, 90 min, incubator 18° C.): 28.6 °C
- time to return to normal range of core temperature and activity in room air (mice [3]; first mouse, after 90 min at 80 ppm): ≤ 60 min
- behavior of the animals after treatment (mice [3]; four mice maintained for 4 weeks after 6 hr 80 ppm at 15° C.): no apparent change in the behavior
- behavior compared to untreated animals (mice [3]; mouse after 80 ppm at cabinet 10.5° C.): no apparent change in the behavior
- core body temperature repeatedly reached (mice [3]; mouse, 80 ppm protocol): 13-15 °C
- lowest core body temperature recorded (FIG. 7) (mice [3]; mouse, 80 ppm, ambient dropped to less than 10° C.): 10.7 °C
- time to recover activity after removal from gassing chamber (mice [3]; non-telemetry mouse, 80 ppm, cabinet 10° C.): ≤ 90 min
- core temperature reached (mice [3]; [7]): 18.6 °C
- heart rate reached (from 600 bpm) (mice [3]; [7]): 250 bpm
- recovery after rewarming in room air (mice [3]; seven mice, 80 ppm, 6 hrs): successfully recovered
- lowest average core body temperature (mice [3]; seven mice, 80 ppm, 6 hrs, ambient temperature 13° C.): 15 °C
- core temperature reached (estimation, electronics failed at 15.3° C.) (mice [3]; telemetry mouse, 80 ppm, cabinet 10° C.): approximately 12.5 °C
- core body temperature reached (mice [3]; telemetry mouse, 80 ppm, cabinet 10.5° C., approximately six hours): 10.5 °C
- neurologic effect of perinatal exposure (rats; 20 or 50 ppm, 7 hours per day, gestation through post-natal day 21): longer dendritic branches with reduced aborization of cerebellar Purkinje cells
- effects in exposed rat pups, perinatal study (rats; 80 ppm (Dorman et al., 2000)): no neuropathological effects or altered motor activity, passive avoidance, or acoustic startle response
- learning of baited radial arm maze task (rats; moderate levels (Partlo et al., 2001)): interferes with the ability of rats to learn a baited radial arm maze task
- discriminated avoidance responses (rats; moderate levels, immediately after end of exposure (Higuchi and Fukamachi)): inhibits discriminated avoidance responses
- adverse effect, gross and histopathological examination (rats; rats, 80 ppm, 6 hrs per day, 5 days per week, 90 days): no observed adverse effect
- behavioral differences after gas exposure (mice [4]): no detectable behavioral differences
- core body temperature at which weak respiration was observed on warming (mice [5]; 80 ppm, after cabinet 10.5° C., warming): 14 °C
- decrease in cellular respiration (mice [5]; 80 ppm, core temperature 15° C., from breathing): 1-20 fold
- breathing (mice [5]; 80 ppm, core temperature dropped to 15° C., normal approximately 200): 1-10 breaths per minute
- core body temperature at which normal movement and respiration were fully apparent (mice [5]; after 80 ppm at 10.5° C., warming, room air): 25 °C
